Results reported in US10376520B2, “Methods for the treatment of cardiovascular disorders” (Galapagos NV, priority 2015, dated 2019).

System: RA patients
Experiment: Atherogenic index, Study 1 (RA patients, add-on to MTX)
Type: in vivo, human
Conditions: for Atherogenic index Mean CFB - 24 weeks results / Atherogenic index Mean percentage CFB - 24 weeks results / Atherogenic index Median CFB - 24 weeks results: 200 mg q.d. continued over 24 weeks
Protocol: As used herein, the term ‘atherogenic index’ refers to
Double-blind, placebo-controlled add on study in subjects with moderately to severely active RA who have an inadequate response to methotrexate (MTX) (oral or parenteral).
Compound 1 (dosed as a [Compound 1:HCl:3H2O]) is dosed for twelve weeks once daily (q.d.) (50 mg, 100 mg or 200 mg) or twice daily (b.i.d.) (25 mg, 50 mg or 100 mg); or placebo.
At Week 12, the subjects on placebo who have not achieved 20% improvement in swollen joint count (SJC66) and tender joint count (TJC68) are re-randomized automatically to receive Compound 1 (dosed as a [Compound 1:HCl:3H2O]) either at 100 mg q.d. or 50 mg b.i.d. doses in a blinded fashion; subjects on 50 mg q.d. who have not achieved 20% improvement in SJC66 and TJC68 will be assigned to 100 mg q.d. and subjects on 25 mg b.i.d. that have not achieved a 20% improvement in SJC66 and TJC68 will be assigned to 50 mg b.i.d. Subjects who switch treatment at week 12 are handled as if they discontinued at week 12 for the purpose of statistical analysis, whereas subjects in the other groups will maintain their randomized treatment until Week 24.
The atherogenic index has been identified to be a good predictor of cardiovascular disorders risks and is calculated as follows: […]

[1] = 2 × 25 mg (b.i.d. group), week 1
[2] = 2 × 25 mg (b.i.d. group), week 2
[3] = 2 × 25 mg (b.i.d. group), week 4
[4] = 2 × 25 mg (b.i.d. group), week 8
[5] = 2 × 25 mg (b.i.d. group), week 12
[6] = 2 × 50 mg (b.i.d. group), week 1
[7] = 2 × 50 mg (b.i.d. group), week 2
[8] = 2 × 50 mg (b.i.d. group), week 4
[9] = 2 × 50 mg (b.i.d. group), week 8
[10] = 2 × 50 mg (b.i.d. group), week 12
[11] = 2 × 100 mg (b.i.d. group), week 1

O=C(Nc1nc2cccc(-c3ccc(CN4CCS(=O)(=O)CC4)cc3)n2n1)C1CC1 [Compound 1, cyclopropanecarboxylic acid {5-[4-(1,1-dioxo-thiomorpholin-4-ylmethyl)-phenyl]-[1,2,4]triazolo[1,5-a]pyridin-2yl}-amide]
Atherogenic index Median CFB - 12 weeks results (100 mg q.d., week 12): -0.10 mmol/L | Atherogenic index Mean CFB - 24 weeks results (week 1): -0.17 mmol/L | Atherogenic index Mean percentage CFB - 24 weeks results (week 1): −2.63% | Atherogenic index Median CFB - 24 weeks results (week 1): -0.10 mmol/L | Atherogenic index Mean CFB - 24 weeks results (week 2): -0.35 mmol/L | Atherogenic index Mean percentage CFB - 24 weeks results (week 2): −7.45% | Atherogenic index Median CFB - 24 weeks results (week 2): -0.25 mmol/L | Atherogenic index Mean CFB - 24 weeks results (week 4): -0.37 mmol/L | Atherogenic index Mean percentage CFB - 24 weeks results (week 4): −7.97% | Atherogenic index Median CFB - 24 weeks results (week 4): -0.30 mmol/L | Atherogenic index Mean CFB - 24 weeks results (week 8): -0.36 mmol/L | Atherogenic index Mean percentage CFB - 24 weeks results (week 8): −7.92% | Atherogenic index Median CFB - 24 weeks results (week 8): -0.30 mmol/L | Atherogenic index Mean CFB - 24 weeks results (week 12): -0.35 mmol/L | Atherogenic index Mean percentage CFB - 24 weeks results (week 12): −6.85% | Atherogenic index Median CFB - 24 weeks results (week 12): -0.30 mmol/L | Atherogenic index Mean CFB - 24 weeks results (week 16): -0.40 mmol/L | Atherogenic index Mean percentage CFB - 24 weeks results (week 16): −8.14% | Atherogenic index Median CFB - 24 weeks results (week 16): -0.40 mmol/L | Atherogenic index Mean CFB - 24 weeks results (week 20): -0.48 mmol/L | Atherogenic index Mean percentage CFB - 24 weeks results (week 20): −8.84% | Atherogenic index Median CFB - 24 weeks results (week 20): -0.40 mmol/L | Atherogenic index Mean CFB - 24 weeks results (week 24): -0.34 mmol/L | Atherogenic index Mean percentage CFB - 24 weeks results (week 24): −6.14% | Atherogenic index Median CFB - 24 weeks results (week 24): -0.30 mmol/L | Atherogenic index Mean CFB (200 mg q.d., week 1): -0.17 mmol/L | Atherogenic index Mean percentage CFB - 12 weeks results (200 mg q.d., week 1): −3% | Atherogenic index Median CFB - 12 weeks results (200 mg q.d., week 1): -0.10 mmol/L | Atherogenic index Mean CFB (200 mg q.d., week 2): -0.35 mmol/L | Atherogenic index Mean percentage CFB - 12 weeks results (200 mg q.d., week 2): −7% | Atherogenic index Median CFB - 12 weeks results (200 mg q.d., week 2): -0.25 mmol/L | Atherogenic index Mean CFB (200 mg q.d., week 4): -0.37 mmol/L | Atherogenic index Mean percentage CFB - 12 weeks results (200 mg q.d., week 4): −8% | Atherogenic index Median CFB - 12 weeks results (200 mg q.d., week 4): -0.30 mmol/L | Atherogenic index Mean CFB (200 mg q.d., week 8): -0.36 mmol/L | Atherogenic index Mean percentage CFB - 12 weeks results (200 mg q.d., week 8): −8% | Atherogenic index Median CFB - 12 weeks results (200 mg q.d., week 8): -0.30 mmol/L | Atherogenic index Mean CFB (200 mg q.d., week 12): -0.35 mmol/L | Atherogenic index Mean percentage CFB - 12 weeks results (200 mg q.d., week 12): −7% | Atherogenic index Median CFB - 12 weeks results (200 mg q.d., week 12): -0.30 mmol/L | Atherogenic index Mean CFB [1]: 0.07 mmol/L | Atherogenic index Mean percentage CFB - 12 weeks results [1]: 3% | Atherogenic index Median CFB - 12 weeks results [1]: 0.10 mmol/L | Atherogenic index Mean CFB [2]: -0.03 mmol/L | Atherogenic index Mean percentage CFB - 12 weeks results [2]: 0% | Atherogenic index Median CFB - 12 weeks results [2]: -0.10 mmol/L | Atherogenic index Mean CFB [3]: -0.04 mmol/L | Atherogenic index Mean percentage CFB - 12 weeks results [3]: 0% | Atherogenic index Median CFB - 12 weeks results [3]: 0.00 mmol/L | Atherogenic index Mean CFB [4]: -0.08 mmol/L | Atherogenic index Mean percentage CFB - 12 weeks results [4]: −1% | Atherogenic index Median CFB - 12 weeks results [4]: -0.10 mmol/L | Atherogenic index Mean CFB [5]: 0.00 mmol/L | Atherogenic index Mean percentage CFB - 12 weeks results [5]: 2% | Atherogenic index Median CFB - 12 weeks results [5]: -0.10 mmol/L | Atherogenic index Mean CFB [6]: -0.06 mmol/L | Atherogenic index Mean percentage CFB - 12 weeks results [6]: 0% | Atherogenic index Median CFB - 12 weeks results [6]: 0.00 mmol/L | Atherogenic index Mean CFB [7]: -0.21 mmol/L | Atherogenic index Mean percentage CFB - 12 weeks results [7]: −5% | Atherogenic index Median CFB - 12 weeks results [7]: -0.10 mmol/L | Atherogenic index Mean CFB [8]: -0.14 mmol/L | Atherogenic index Mean percentage CFB - 12 weeks results [8]: −3% | Atherogenic index Median CFB - 12 weeks results [8]: -0.10 mmol/L | Atherogenic index Mean CFB [9]: -0.18 mmol/L | Atherogenic index Mean percentage CFB - 12 weeks results [9]: −3% | Atherogenic index Median CFB - 12 weeks results [9]: -0.10 mmol/L | Atherogenic index Mean CFB [10]: -0.07 mmol/L | Atherogenic index Mean percentage CFB - 12 weeks results [10]: −1% | Atherogenic index Median CFB - 12 weeks results [10]: 0.00 mmol/L | Atherogenic index Mean CFB [11]: -0.05 mmol/L | Atherogenic index Mean percentage CFB - 12 weeks results [11]: 0% | Atherogenic index Median CFB - 12 weeks results [11]: 0.00 mmol/L | Atherogenic index Mean CFB (2 × 100 mg (b.i.d. group), week 2): -0.19 mmol/L
